One compound from patent US11249070B2, “Anti-cancer drug assessment method” (TOPPAN PRINTING CO., LTD., priority 2016, dated 2022) can be followed below.

The test system of test [1] is human lung adenocarcinoma cell line A549. The test is described as follows: CNT with 5-FU with or without bevacizumab, NHDF/HUVEC cell structure, flow cytometer (Example 11). It is filed as cell-based. Conditions: 3D (NHDF, HUVEC), bevacizumab 2 μg per well in the combination, 72 hours. The method, then:
(§1) Thereafter, 400 μL of Fixation/Permilization solution (554722, produced by BD Bioscience) was added for fixation at 4° C. for 30 minutes, and the liquid component was removed. Then, 400 μL of Perm/Wash buffer attached to the kit was added, and centrifugation was performed at room temperature at 1120×g for 5 minutes. Thereafter, a primary antibody Monoclonal Mouse Anti-human Cytokeratin 7 (M7018, produced by DAKO) diluted with 5% FBS-containing PBS was added and allowed to react at 4° C. for 30 minutes. Then, the liquid component was removed, and washing was performed twice using Perm/Wash buffer attached to the kit. A secondary antibody Goat anti-Mouse IgG1 Cross-Adsorbed Secondary Antibody, Alexa Fluor 546 (A-11030, produced by Thermo Fischer Scientific) diluted with 5% FBS-containing PBS was added and allowed to react at 4° C. for 30 minutes. Thereafter, the liquid component was removed, washing was performed twice using Perm/Wash buffer attached to the kit, and the resultant was resuspended in 350 μL of 5% FBS-containing PBS.
(§2) The number of cells emitting fluorescence in the suspension after fixation and staining was counted as viable cancer cells. The cell count was performed using a flow cytometer (produced by Sony).
A general note: A flow cytometer gives signals particle by particle.

Test [2] shares this test system. The test is described as follows: CNT with 5-FU with or without bevacizumab, lung stromal cells NHLF/HMVEC-L, flow cytometer (Example 10). It is filed as cell-based. Conditions: 5-FU 100 μM, bevacizumab 2 μg per well in the combination, 72 hours. As for the experimental part: as §1, §2
A further test has as its system HT29. Briefly: CNT with 5-FU with or without bevacizumab, 2D, spheroid, 3D (Example 5). Conditions: bevacizumab 2 μg per well in the combination, 72 hours. It is filed as cell-based, human. The source says: Moreover, for comparison, in place of the above cell structures, structures were produced by culturing cancer cells so as to form a single layer in a general culture container (2D method), and spheroids were produced by spheroid culture of a mixture of 2×10^6 NHDF, 3×10^4 HUVEC, and 2×10^4 cancer cells (spheroid method).

A further test concerns HCT116. Described as above. Type of test: cell-based, human. Conditions: bevacizumab 2 μg per well in the combination, 72 hours.

The structures appear in SMILES notation.

`O=c1[nH]cc(F)c(=O)[nH]1` [5-FU]: the “CNT (%) Average value” in test [1] (5-FU 100 μM) is reported as 28.8%; in test [1] (5-FU 1 mM) it was 7.7%; in test [2] (2D), 37.7%; in test [2] (3D (NHLF, HMVEC-L)), 72.9%; in the test with HT29 (2D, 5-FU 100 μM) it was 54.2%; with HT29 (2D, 5-FU 1 mM) it was 25.8%. Also, the “CNT (%) Average value” in the test with HT29 (3D, 5-FU 1 mM) worked out at 75.0%; in the test on HT29 (Spheroid, 5-FU 100 μM) it was 57.5%; with HT29 (Spheroid, 5-FU 1 mM) it was 44.8%; in the test on HCT116 (2D, 5-FU 100 μM) it was 38.9%; in the test with HCT116 (2D, 5-FU 1 mM) it was 15.3%; in the test with HCT116 (3D, 5-FU 100 μM), 86.9%. Also, the “CNT (%) Average value” in the test on HCT116 (Spheroid, 5-FU 100 μM) is listed as 62.3%; with HCT116 (Spheroid, 5-FU 1 mM), 27.7%.
